Patent US20070059788A1, “Method and apparatus for electrically detecting an adverse effect of a toxic substance on procaryotic cells” (priority 2005, published 2007)

Key:
Type in all cases: cell-based
E. coli BL21 cells [1] = assay: optical detection of cell membrane potential (Baclight Bacterial Membrane Potential Kit)
Method: (§1) The optical detection method was performed using a Baclight™ Bacterial Membrane Potential Kit (commercially available from by Molecular Probes Inc., U.S.A.) for verification.

E. coli BL21 cells [2] = assay: colony counting of the cells-immobilized chip
Method: as §1

E. coli BL21 cells [3] = assay: impedance (E′, E″) measurement of cells immobilized on an interdigit electrode chip
Method: After a suspension of E. coli BL21 cells (1×10^10 ells) was mixed with 1 ml of 1.5% agarose, 1 ul of the resulting mixture was laid and immobilized on the surface of a positive dielectrophoresis (“DEP”) 0 chip.
Subsequently, the cells-immobilized chip was soaked in 10 ml of 1 μM KCl solution and its initial dielectric permittivity (E′) and dielectric losses (E″) were measured. […] The chip was then taken out of the 10 ml of 1 μM KCl solution and washed with 1 μM KCl solution three times. After soaking the chip in 10 ml of 1 μM KCl solution, dielectric permittivity (E′) and dielectric losses (E″) were measured.
Control 2 is a case of treating only 1 μM KCl solution to the chip immobilized with E. coli cells, which represents the noise of prokaryotic cells themselves that varies with the passage of time.
In FIGS. 2A to 2C, Line b represents an initial impedance value measured after the cell immobilization, and Line a represents an impedance value measured after treating with a toxic substance or 1 μM KCl solution.

Molecule	reduction in the cell membrane potential measured by the optical method (E. coli BL21 cells [1]; 20% ethanol, compared with untreated control (FIG. 6))	adverse effect by colony counting (E. coli BL21 cells [2]; 20% ethanol)	reduction in the cell membrane's impedance (E′) signal (E. coli BL21 cells [3]; 20% ethanol (FIG. 2C))	reduction of cell membrane potential (E. coli BL21 cells [1]; 5 μM CCCP, compared with untreated control (FIG. 5B)) [%]	adverse effect by colony counting (E. coli BL21 cells [2]; 5 μM CCCP versus untreated control (FIG. 5A))	reduction of impedance signal (E″) of the cell membrane (E. coli BL21 cells [3]; 5 μM CCCP, compared with the untreated control (FIG. 4C))	change in E′ and E″ signals over the initial impedance value (E. coli BL21 cells [3]; 5 μM CCCP, same method as Example 1)
CCO [ethanol]	almost nothing	difficult to measure an adverse effect	about 36%	–	–	–	–
carbonyl cyanide m-chloropheoxyhydrazone [CCCP]	–	–	–	10	difficult to measure an adverse effect	about 32%	significant reduction
